Reference: patent US20150238490A1 (Pharmacyclics, Inc., priority 2014, published 2015)
“Also recorded” adds a separate entry of the source.

Tests used:
[1] = test system: TMD8 cell line (ABC subtype DLBCL); test: CCL3/CCL4 secretion by DLBCL cell line, supernatant ELISA; type: cell-based, human
Experimental: (§1) For BCR stimulation, culture medium was supplemented with 10 μg/mL anti-IgM (polyclonal goat F(ab′)2 fragments to human IgM, MP Biomedicals) for the indicated time periods.
(§2) All DLBCL cell lines were grown in RPMI 1640 medium (Hyclone) supplemented with glutamine, beta-mercaptoethanol, penicillin/streptomycin and 10% fetal bovine serum, except for OCI-Ly3 and OCI-Ly10, which were maintained in Iscove's modified Dulbecco's medium (Gibco) supplemented with beta-mercaptoethanol, penicillin/streptomycin and 20% heparinized human plasma. All cell lines were grown in a humidified 5% CO2 incubator at 37° C. DLBCL cell lines included TMD8, HBL-1, OCI-Ly10, OCI-Ly3, DB and OCI-Ly19.
(§3) Cell culture supernatant samples from DLBCL cell lines were used after 24 h for the measurement of CCL3 and CCL4 levels for quantification by ELISA using Quantikine Kits (R&D Systems). The absorbance was recorded by a microplate reader (ELx808, Bio-Tek Instruments), and data collection and analysis were performed using Gen5 software Version 1.08 (Bio-Tek Instruments).
(§4) Peripheral blood serum samples were obtained from the tissue bank of the Department of Lymphoma and Myeloma at MDACC or from the University of Nebraska Medical Center. All serum samples were aliquoted and stored at the time of initial referral to each institution. Serum and cell culture supernatant CCL3 and CCL4 levels were quantified by ELISA using Quantikine Kits (R&D Systems) and was conducted at MDACC (Sivina M, Hartmann E, Kipps T J, et al. “CCL3 (MIP-1alpha) plasma levels and the risk for disease progression in chronic lymphocytic leukemia.” Blood. 2011; 117(5):1662-1669.). The absorbance was recorded on a microplate reader (ELx808, Bio-Tek Instruments), and data collection and analysis were performed using Gen5 software Version 1.08 (Bio-Tek Instruments).

[2] = test system: HBL-1 cell line (ABC subtype DLBCL); test: as above; type: cell-based, human; conditions: for mean supernatant concentration of CCL3: 24 h
Experimental: as §1, §2, §3, §4

[3] = test system: OCI-Ly3 cell line (ABC subtype DLBCL, CARD11 mutation); test: as above; type: cell-based, human; conditions: 1 μM ibrutinib, supernatant after 24 h
Experimental: as §1, §2, §3, §4

[4] = test system: OCI-Ly19 cell line (GCB subtype DLBCL); test: as above; type: cell-based, human; conditions: 1 μM ibrutinib, supernatant after 24 h
Experimental: as §1, §2, §3, §4

[5] = test system: DB cell line (GCB subtype DLBCL); test: as above; type: cell-based, human; conditions: 1 μM ibrutinib, supernatant after 24 h
Experimental: as §1, §2, §3, §4

[6] = test system: OCI-Ly10 cell line (ABC subtype DLBCL); test: as above; type: cell-based, human; conditions: 1 μM ibrutinib, supernatant after 24 h
Experimental: as §1, §2, §3, §4

DLBCL patients = test: Serum CCL3 and CCL4 pre- and post-treatment in patients with DLBCL; type: in vivo, human; conditions: in most patients
Text: The study included 102 patients from MD Anderson Cancer Center (MDACC) with newly diagnosed DLBCL between January 2009 and February 2011 (MDA test cohort). In addition, a second set of 51 patients from MDACC with newly diagnosed DLBCL was included for validation analysis (MDA validation cohort). Nineteen patients with newly diagnosed DLBCL from the University of Nebraska were also included in the correlation analysis between serum CCL3/CCL4 levels and GCB vs. non-GCB subtype (Nebraska cohort). […] Demographics and other clinical parameters for both MDACC test and validation cohort were obtained at the time of initial referral to MDACC. DLBCL diagnosis was established by institutional pathologists according to the WHO classification. Immunophenotypic classification (GCB vs. non-GCB subtype) of DLBCL was determined by Hans criteria. […]
Peripheral blood serum samples were obtained from the tissue bank of the Department of Lymphoma and Myeloma at MDACC or from the University of Nebraska Medical Center. […] Serum and cell culture supernatant CCL3 and CCL4 levels were quantified by ELISA using Quantikine Kits (R&D Systems) and was conducted at MDACC (Sivina M, Hartmann E, Kipps T J, et al. “CCL3 (MIP-1alpha) plasma levels and the risk for disease progression in chronic lymphocytic leukemia.” Blood. 2011; 117(5):1662-1669.). […]

CLL patients = conditions: plasma, previous studies; cited from earlier work
[7] = 1 μM ibrutinib, alone or with 10 μg/mL anti-IgM, supernatant after 24 h
[8] = ibrutinib titration (3.1-1000 nM) in combination with 10 μg αIgM

| Compound | CCL3 level after ibrutinib treatment [1, 7] | CCL4 level after ibrutinib treatment [1, 7] | CCL3 level after BCR stimulation, ibrutinib titration ([1]; 1000 nM ibrutinib with 10 μg αIgM, decreased level maintained at 500 nM and 100 nM) | CCL4 level after BCR stimulation, ibrutinib titration ([1]; 1000 nM ibrutinib with 10 μg αIgM, decreased level maintained at 500 nM, 100 nM and 50 nM) | mean supernatant concentration of CCL3 ([2]; 1 μM ibrutinib alone (unstimulated cells), baseline 1705.5 pg/mL) | mean supernatant concentration of CCL3 ([2]; 1 μM ibrutinib in combination with 10 μg/mL anti-IgM) | CCL3 level after ibrutinib treatment [2, 7] | CCL4 level after ibrutinib treatment [2, 7] | ibrutinib concentration resulting in the lowest CCL3 level [2, 8] | ibrutinib concentration resulting in the lowest CCL4 level [2, 8] | CCL3 level after ibrutinib treatment [3] | CCL4 level after ibrutinib treatment [3] | CCL3 level after ibrutinib treatment [4] | CCL4 level after ibrutinib treatment [4] | CCL3 level after ibrutinib treatment [5] | CCL4 level after ibrutinib treatment [5] | CCL3 level after ibrutinib treatment [6] | CCL4 level after ibrutinib treatment [6] | high concentrations of serum CCL3 and CCL4 after therapy (DLBCL patients) | elevated CCL3 and CCL4 levels after pharmacologic inhibition of BCR signaling (CLL patients) |
| --- | --- | --- | --- | --- | --- | --- | --- | --- | --- | --- | --- | --- | --- | --- | --- | --- | --- | --- | --- | --- |
| C=CC(=O)N1CCC[C@@H](n2nc(-c3ccc(Oc4ccccc4)cc3)c3c(N)ncnc32)C1 [ibrutinib, 1-((R)-3-(4-amino-3-(4-phenoxyphenyl)-1H-pyrazolo[3,4-d]pyrimidin-1-yl)piperidin-1-yl)prop-2-en-1-one] | abrogated; also recorded: significantly decreased | abrogated; also recorded: significantly decreased | decreased | decreased | 313.2 (±6.8) pg/mL | 2029.16 (±26.9) pg/mL | abrogated; also recorded: significantly decreased | abrogated; also recorded: significantly decreased | 500 nM | 500 nM | did not respond; also recorded: unaffected | did not respond; also recorded: unaffected | did not respond; also recorded: unaffected | did not respond; also recorded: unaffected | did not respond; also recorded: unaffected | did not respond; also recorded: unaffected | sensitive to inhibition; also recorded: significant decrease | sensitive to inhibition; also recorded: significant decrease | returned to low levels |  |
| CC[C@H](Nc1ncnc2[nH]cnc12)c1nc2cccc(F)c2c(=O)n1-c1ccccc1 [GS-1101/CAL-101/idelalisib] |  |  |  |  |  |  |  |  |  |  |  |  |  |  |  |  |  |  |  | rapidly normalize |
